# Test results reported in ChEMBL document CHEMBL1201862, “PubChem BioAssay data set” (2004).
#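 How tested: cells in 96-well plates exposed to compound for 48 hours at five concentrations. Here, GI50 denotes the concentration required for 50% inhibition of growth.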 The source made the active and inactive calls. Rule as the data show it: active = GI50 up to about 1.1 µM and inactive = higher.
# Experiments:
# Assay in all cases: growth of human tumour cells (NCI), 48 h
# KM12 = test system: KM12
# A549 = test system: A549
# HCT-116 = test system: HCT-116
# CAKI-1 = test system: CAKI-1
# SF-295 = test system: SF-295
# TK-10 = test system: TK-10
# LOX IMVI = test system: LOX IMVI
# CCRF-CEM = test system: CCRF-CEM
# SF-268 = test system: SF-268
# HT-29 = test system: HT-29
# SN12C = test system: SN12C
# SK-OV-3 = test system: SK-OV-3
# HCT-15 = test system: HCT-15
# NCI-H23 = test system: NCI-H23
# NCI/ADR-RES = test system: NCI/ADR-RES
# SK-MEL-2 = test system: SK-MEL-2
# MDA-N = test system: MDA-N
# PC-3 = test system: PC-3
# DU-145 = test system: DU-145
# Hs-578T = test system: Hs-578T
SMILES,GI50 (KM12),GI50 (A549),GI50 (HCT-116),GI50 (CAKI-1),GI50 (SF-295),GI50 (TK-10),GI50 (LOX IMVI),GI50 (CCRF-CEM),GI50 (SF-268),GI50 (HT-29),GI50 (SN12C),GI50 (SK-OV-3),GI50 (HCT-15),GI50 (NCI-H23),GI50 (NCI/ADR-RES),GI50 (SK-MEL-2),GI50 (MDA-N),GI50 (PC-3),GI50 (DU-145),GI50 (Hs-578T)
O=NN(CCCl)C(=O)N[C@H]1CC[C@@H](C(=O)O)CC1,> 100 µM (inactive),89.7 µM (inactive),> 100 µM (inactive),92.9 µM (inactive),52.6 µM (inactive),> 100 µM (inactive),45.1 µM (inactive),36.6 µM (inactive),32.8 µM (inactive),> 100 µM (inactive),> 100 µM (inactive),> 100 µM (inactive),> 100 µM,97.7 µM (inactive),> 100 µM (inactive),> 100 µM (inactive),–,–,–,–
NC(=S)N/N=C1\CCc2ccccc2C1,> 100 µM (inactive),> 100 µM (inactive),> 100 µM (inactive),–,> 100 µM (inactive),> 100 µM (inactive),> 100 µM (inactive),70.8 µM (inactive),> 100 µM (inactive),> 100 µM (inactive),> 100 µM (inactive),> 100 µM (inactive),> 100 µM,> 100 µM (inactive),> 100 µM (inactive),–,> 100 µM (inactive),> 100 µM (inactive),> 100 µM (inactive),–
CCCCCCCCCC(=O)Oc1cccc2onc(C)c12,77.4 µM (inactive),> 100 µM (inactive),> 100 µM (inactive),> 100 µM (inactive),> 100 µM (inactive),> 100 µM (inactive),> 100 µM (inactive),> 100 µM (inactive),> 100 µM (inactive),> 100 µM (inactive),> 100 µM (inactive),> 100 µM (inactive),> 100 µM,> 100 µM (inactive),–,> 100 µM (inactive),–,–,–,–
Cc1cc2nc3c(C#N)c(-c4ccccc4)cc(Nc4ccc(F)cc4)n3c2cc1C,86.7 µM (inactive),–,13.7 µM (inactive),29.9 µM (inactive),17.6 µM (inactive),12.4 µM (inactive),13.4 µM (inactive),–,10.5 µM (inactive),28.6 µM (inactive),13.9 µM (inactive),16.7 µM (inactive),9.25 µM,13.4 µM (inactive),8.11 µM (inactive),–,–,–,–,–
Cc1nn2c(=O)n(-c3cccc(-n4nnc5c(-c6ccccc6)c(C)nn5c4=O)c3C)nnc2c1-c1ccccc1,> 10 µM (inactive),33.3 µM (inactive),15.8 µM (inactive),39.4 µM (inactive),44.9 µM (inactive),47.9 µM (inactive),27.7 µM (inactive),19.9 µM (inactive),46 µM (inactive),35.7 µM (inactive),17.1 µM (inactive),> 100 µM (inactive),16.1 µM,98.4 µM (inactive),–,3.33 µM (inactive),–,–,–,–
O=S1(=O)c2cnccc2N=C(NCc2ccccc2)N1c1ccccc1,> 100 µM (inactive),> 100 µM (inactive),73.8 µM (inactive),> 100 µM (inactive),89.1 µM (inactive),30.1 µM (inactive),> 100 µM (inactive),41 µM (inactive),> 100 µM (inactive),81.1 µM (inactive),71.9 µM (inactive),> 100 µM (inactive),74.5 µM,64.3 µM (inactive),68.1 µM (inactive),83.2 µM (inactive),–,75.3 µM (inactive),67.1 µM (inactive),58.3 µM (inactive)
OC(c1cccnc1)C(F)(F)c1nc2ccccc2o1 (centres undefined),> 100 µM (inactive),–,> 100 µM (inactive),> 100 µM (inactive),–,> 100 µM (inactive),> 100 µM (inactive),> 100 µM (inactive),> 100 µM (inactive),> 100 µM (inactive),–,–,> 100 µM,> 100 µM (inactive),> 100 µM (inactive),> 100 µM (inactive),–,> 100 µM (inactive),50.8 µM (inactive),> 100 µM (inactive)
Brc1ccc2c(c1)C1(c3cc(Br)ccc3-2)c2cc(Br)ccc2-c2ccc(Br)cc21,> 100 µM (inactive),> 100 µM (inactive),> 100 µM (inactive),> 100 µM (inactive),> 100 µM (inactive),> 100 µM (inactive),> 100 µM (inactive),> 100 µM (inactive),> 100 µM (inactive),> 100 µM (inactive),> 100 µM (inactive),> 100 µM (inactive),> 100 µM,> 100 µM (inactive),–,> 100 µM (inactive),–,–,–,–
Nc1ccc(C(=O)N/C(=C\c2cccc([N+](=O)[O-])c2)c2nc3c4c(ccc3[nH]2)C(=O)c2ccccc2C4=O)cc1,–,18.6 µM (inactive),22 µM (inactive),8.69 µM (inactive),14 µM (inactive),19.2 µM (inactive),15.1 µM (inactive),0.853 µM (active),2.94 µM (inactive),62.5 µM (inactive),> 100 µM (inactive),19.3 µM (inactive),70.5 µM,10.8 µM (inactive),–,91.6 µM (inactive),–,–,–,–
